Literature values, collected in patent US20250235391A1, “Lip Balm Containing Caffeine, Nicotine or Testosterone” (Shear Kershman Laboratories, Inc., priority 2018, published 2025).

SMILES: CCCCCc1cc(O)c2c(c1)OC(C)(C)[C@@H]1CCC(C)=C[C@@H]21 [Dronabinol, A9-tetrahydrocannabinol]
- duration of action for psychoactive effects (after oral administration): 4 to 6 h
- duration of appetite stimulant effect (after oral administration): ≥ 24 h
- peak effect (time) (after oral administration): 2 to 4 h
- maximal plasma levels (oral dosing of 20 mg in a sesame oil formulation): around 10 ng/ml
- administered dose reaching systemic circulation (oral, first pass hepatic metabolism and high lipid solubility): 10-20%
- absorbed after a single oral dose (single oral dose): 90-95%
